These are literature values, as cited in patent US20070105793A1, “Compositions and methods using nicotinic acid for treatment of hypercholesterolemia, hyperlipidemia nd cardiovascular disease” (priority 2005, published 2007).

The test system of one data set is β-thromboglobulin. Particulars: in vivo.
For data set [1] the following is noted: after ingestion.
The conditions of data set [2]: in vivo.

SMILES strings stand for the structures.

On to `O=C(O)c1cccnc1` [niacin, nicotinic acid], for which, in the data set on β-thromboglobulin, the “effect on β-thromboglobulin” value was “does not have a favorable effect on β-thromboglobulin”.
With `O=C(O[C@H]1[C@H](OC(=O)c2cccnc2)[C@@H](OC(=O)c2cccnc2)[C@H](OC(=O)c2cccnc2)[C@@H](OC(=O)c2cccnc2)[C@H]1OC(=O)c1cccnc1)c1cccnc1` [IHN, inositol hexanicotinate], in data set [1], the “time of release of niacin into the system by hydrolysis” value was “around 10 hours”. For the same compound, in data set [2], the flush entry is ““zero” flush” and the “impact on blood sugar” value is on record as “no negative impact on blood sugar”.
